# Key:
# ATP7A(E1030K) = target: T1, ATP7A(E1030K) (Homo sapiens, UniProt Q04656, E1030K); experiment: Microscale thermophoresis (MST) binding to GFP-ATP7A(E1030K) mutant; settings: relative to wild type ATP7A
# T1 construct: expressed in transfected cells; host or cells: HEK293 (detergent-free lysate)
# T1 sequence (Q04656 1-1500 E1030K): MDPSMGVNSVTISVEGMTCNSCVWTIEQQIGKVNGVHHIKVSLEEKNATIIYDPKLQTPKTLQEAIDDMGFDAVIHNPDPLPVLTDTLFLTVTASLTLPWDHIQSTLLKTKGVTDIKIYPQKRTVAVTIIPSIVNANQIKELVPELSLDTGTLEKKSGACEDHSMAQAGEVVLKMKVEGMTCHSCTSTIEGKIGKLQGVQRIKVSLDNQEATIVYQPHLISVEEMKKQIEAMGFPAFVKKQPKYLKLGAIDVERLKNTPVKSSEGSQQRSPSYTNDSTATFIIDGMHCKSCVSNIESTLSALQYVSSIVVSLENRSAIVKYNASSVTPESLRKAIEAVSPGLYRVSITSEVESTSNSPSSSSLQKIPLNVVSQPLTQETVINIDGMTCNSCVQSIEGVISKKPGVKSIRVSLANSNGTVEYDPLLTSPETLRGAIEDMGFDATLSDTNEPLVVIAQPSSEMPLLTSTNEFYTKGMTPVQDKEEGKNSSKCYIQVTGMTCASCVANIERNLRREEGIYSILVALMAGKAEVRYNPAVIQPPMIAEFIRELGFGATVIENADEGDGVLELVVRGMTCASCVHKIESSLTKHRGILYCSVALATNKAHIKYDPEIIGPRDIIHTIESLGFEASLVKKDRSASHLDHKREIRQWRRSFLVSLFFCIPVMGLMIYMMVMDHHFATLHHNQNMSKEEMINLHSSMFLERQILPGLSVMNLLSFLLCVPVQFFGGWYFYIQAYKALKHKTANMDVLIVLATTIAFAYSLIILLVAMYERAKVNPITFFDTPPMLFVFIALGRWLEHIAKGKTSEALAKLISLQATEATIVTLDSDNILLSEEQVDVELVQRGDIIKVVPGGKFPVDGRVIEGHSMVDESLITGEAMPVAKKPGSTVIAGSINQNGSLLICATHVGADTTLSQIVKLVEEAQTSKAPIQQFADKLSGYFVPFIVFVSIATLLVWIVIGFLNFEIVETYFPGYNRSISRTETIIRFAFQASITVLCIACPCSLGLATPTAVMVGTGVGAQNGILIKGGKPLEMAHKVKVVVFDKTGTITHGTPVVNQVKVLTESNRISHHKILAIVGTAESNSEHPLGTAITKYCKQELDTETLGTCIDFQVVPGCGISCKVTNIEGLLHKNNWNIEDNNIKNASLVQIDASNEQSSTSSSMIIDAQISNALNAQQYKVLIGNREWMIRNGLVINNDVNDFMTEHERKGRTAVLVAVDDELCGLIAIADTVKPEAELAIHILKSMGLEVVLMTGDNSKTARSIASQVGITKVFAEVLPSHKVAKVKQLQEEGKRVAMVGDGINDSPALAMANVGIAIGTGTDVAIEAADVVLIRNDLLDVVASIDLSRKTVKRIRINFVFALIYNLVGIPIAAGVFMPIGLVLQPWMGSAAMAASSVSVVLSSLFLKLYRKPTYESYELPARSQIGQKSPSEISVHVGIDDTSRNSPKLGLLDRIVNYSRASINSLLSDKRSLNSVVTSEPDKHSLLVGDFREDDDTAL
# Source text: 7A is a model of MKV3-coordinating residues in ATP7A which are identical to those of ATP7B except that the negatively charged glutamate at position 1030 (E1030) of ATP7A corresponds to a positively lysine at position 1013 (K1013) in ATP7B. […] To confirm this the E1030 residue in ATP7A was mutated to a lysine to generate an ATP7A(E1030K) mutant protein.
# GFP alone = experiment: Microscale thermophoresis (MST), GFP alone as negative control; format: binding
# Source text: Coordinating residues D935 and E798 are predicted to bind copper during transport.
# [1] = Cytotoxicity in B16 cells by MTT and crystal violet assays; format: cell-based; settings: mouse
# Source text: This is consistent with lower affinity of MKV1 for ATP7A (FIG. 6E).
# B16 melanoma lung tumors = experiment: Melanin production in B16 melanoma tumors on the lungs of mice; format: in vivo, C57BL/6 mice; settings: 50 mg/kg subcutaneously every other day for 7 days
# Method: Previous studies have shown that ATP7A is essential for copper delivery into the secretory pathway to tyrosinase, a copper-dependent enzyme required for melanogenesis. […] To confirm that ATP7A is required for tyrosinase activity, B16 melanoma cells were generated in which the ATP7A gene was deleted by CRISPR-CAS9 to generate ATP7A^KO cells. As expected, tyrosinase activity was absent in the B16 ATP7A^KO cells. […] Wild type B16 melanoma cells were injected by tail vein into C57BL/6 mice to establish metastatic tumors on the lungs. […] Left panel images show the lungs of three different mice immediately after dissection. In control mice, darkly pigmented melanoma nodules were readily apparent on the lungs (white arrows).
# LOX activity = LOX activity secreted into conditioned media of cancer cells; format: cell-based; settings: 5 μM, 4 days
# [2] = test system: 4T1 breast cancer cells and LLC lung cancer cells; experiment: In vitro scratch assay of cell motility (gap closure); format: cell-based; settings: 10 μM
# Source text: LOX activity is known to be important for the motility of cancer cells. In this assay, a gap (scratch) was created in a confluent monolayer of cells and closure of the gap in the presence or absence of MKV3 was monitored by video microscopy. […] Dashed lines indicate scratch starting points (12A and 12C). […] The requirement for ATP7A in cancer cell motility is consistent with its role in activation of lysyl oxidase enzymes.
# [3] = test system: ATP7A trafficking in 4T1 breast cancer cells; experiment: Copper-stimulated trafficking of ATP7A by immunofluorescence microscopy; format: cell-based; settings: 10 μM, 4 h, 4T1 cells
# Method: Since the copper-stimulated trafficking of ATP7A is dependent on its transport activity, an inhibitor of ATP7A would be expected to block copper-stimulated trafficking of ATP7A. 4T1 breast cancer cells were pre-grown on glass coverslips for 16 hours in media containing 10 μM of the copper chelator bathocuproine disulfonate to create a baseline of low copper levels. […] After 4 h, the cells were fixed, permeabilized and stained with anti-ATP7A antibodies (green). Nuclei were labeled with DAPI stain. In vehicle treated control cells, the ATP7A protein was strongly detected in the perinuclear region (13A), which is consistent with its known location in the trans-Golgi compartment. As expected, the copper treatment stimulated ATP7A trafficking from the perinuclear region into cytoplasmic vesicles (13B).
# 4T1 cells = experiment: Sensitivity of 4T1 cells to metal ions, crystal violet assay; format: cell-based
# Method: All metals were added as chloride salts except silver, which was added as silver nitrate (AgNO3).
smiles,measurement,setting,value
N#CC(C(=O)Nc1cccc(C(F)(F)F)c1)C(=S)Nc1ccccc1Cl (centres unmarked) [MKV3],increase of binding affinity by E1030K mutation in ATP7A,ATP7A(E1030K),approximately 2.7 fold
same,binding to GFP alone,GFP alone,not to GFP alone
same,CC50,[1],~75 µM
same,pigment of melanoma nodules on the lungs,B16 melanoma lung tumors,very little pigment
same,LOX activity in conditioned media,LOX activity; 4T1 breast cancer cells,reduction in LOX activity
same,LOX activity in conditioned media,LOX activity; LLC lung cancer cells,reduction in LOX activity
same,rate of gap closure,[2]; 4T1 cells,significantly reduced
same,rate of gap closure,[2]; LLC cells,significantly reduced
same,copper-stimulated trafficking of ATP7A,[3],blocked
same,sensitivity to copper and silver,"4T1 cells; 10 μM MKV3, 4T1 cells",conferred sensitivity to as little as 5 μM copper and silver
same,sensitivity to other metals,"4T1 cells; 10 μM MKV3, other metals up to 50 μM",did not affect the sensitivity

# Source: US20250017889A1, “INHIBITORS OF P1B-TYPE ATPASES” (THE CURATORS OF THE UNIVERSITY OF MISSOURI, priority 2021, published 2025)
